Laboratory results from US8987287B2, “Spirocyclic morphinans and their use” (Purdue Pharma L.P., priority 2012, dated 2015).

Legend:
[1] = target: μ-opioid receptor (Homo sapiens (Human), UniProt P35372); assay: μ-opioid receptor radioligand ([3H]-diprenorphine) dose-displacement binding assay; conditions: binding affinity, read-out: Opioid Receptor Ki (nM) μ
Experimental: μ-Opioid Receptor Binding Assay Procedures: Radioligand dose-displacement binding assays for μ-opioid receptors used 0.3 nM [^3H]-diprenorphine (Perkin Elmer, Shelton, Conn.), with […] membrane protein/well in a final volume of 500 μl binding buffer (10 mM MgCl2, 1 mM EDTA, 5% DMSO, 50 mM HEPES, pH 7.4). Reactions were carried out in the absence or presence of increasing concentrations of unlabeled naloxone. All reactions were conducted in 96-deep well polypropylene plates for 2 hours at room temperature. Binding reactions were terminated by rapid filtration onto 96-well Unifilter GF/C filter plates (Perkin Elmer, Shelton, Conn.), presoaked in 0.5% polyethylenimine using a 96-well tissue harvester (Perkin Elmer, Shelton, Conn.) followed by performing three filtration washes with 500 μl of ice-cold binding buffer. Filter plates were subsequently dried at 50° C. for 2-3 hours. BetaScint scintillation cocktail (Perkin Elmer, Shelton, Conn.) was added (50 μl/well), and plates were counted using a Packard Top-Count for 1 min/well. The data were analyzed using the one-site competition curve fitting functions in GraphPad PRISM™ v. 3.0 or higher (San Diego, Calif.), or an in-house function for one-site competition curve-fitting.
(§1) In TABLE 1, binding affinity of certain Compounds of the Invention to the μ-, δ- and κ-opioid receptors was determined as described above.

[2] = target: T1, δ opioid receptor (Homo sapiens (Human), UniProt P41143); assay: δ-opioid receptor radioligand ([3H]-Naltrindole) dose-displacement binding assay; conditions: binding affinity
T1 sequence (P41143 whole entry, looked up): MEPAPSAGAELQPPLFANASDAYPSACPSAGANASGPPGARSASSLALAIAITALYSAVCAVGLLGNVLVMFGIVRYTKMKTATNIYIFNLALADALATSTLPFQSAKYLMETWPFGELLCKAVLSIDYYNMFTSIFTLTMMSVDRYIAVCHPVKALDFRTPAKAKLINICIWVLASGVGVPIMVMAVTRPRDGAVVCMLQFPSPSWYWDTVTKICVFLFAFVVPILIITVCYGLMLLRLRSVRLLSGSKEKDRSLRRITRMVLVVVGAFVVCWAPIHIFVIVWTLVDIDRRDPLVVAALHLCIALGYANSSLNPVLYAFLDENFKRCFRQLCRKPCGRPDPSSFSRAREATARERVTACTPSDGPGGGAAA
Experimental: δ-Opioid Receptor Binding Assay Procedures: δ-Opioid Receptor Binding Assay Procedures were conducted as follows. Radioligand dose-displacement assays used 0.3 nM [^3H]-Naltrindole (Perkin Elmer, Shelton, Conn.; 33.0 Ci/mmole) with 5 μg membrane protein (Perkin Elmer, Shelton, Conn.) in a final volume of 500 μl binding buffer (5 mM MgCl2, 5% DMSO, 50 mM Trizma base, pH 7.4). Non-specific binding was determined in the presence of 25 μM unlabeled naloxone. All reactions were performed in 96-deep well polypropylene plates for 1 hour at a temperature of about 25° C. Binding reactions were terminated by rapid filtration onto 96-well Unifilter GF/C filter plates (Perkin Elmer, Shelton, Conn.) presoaked in 0.5% polyethylenimine (Sigma). Harvesting was performed using a 96-well tissue harvester (Perkin Elmer, Shelton, Conn.) followed by five filtration washes with 500 μl ice-cold binding buffer. Filter plates were subsequently dried at 50° C. for 1-2 hours. Fifty μl/well scintillation cocktail (Perkin Elmer, Shelton, Conn.) was added and plates were counted in a Packard Top-Count for 1 min/well.
as §1

[3] = target: κ opioid receptor (Homo sapiens (Human), UniProt P41145); assay: κ-opioid receptor [35S]GTPγS functional assay, HEK-293 or CHO cells; format: biochemical; conditions: for Emax: relative to U69,593, HEK-293 or CHO cells
Experimental: (§2) κ-Opioid Receptor Functional Assay Procedures: Functional [^35S]GTPγS binding assays were conducted as follows. κ opioid receptor membrane solution was prepared by sequentially adding final concentrations of 0.026 μg/μl κ membrane protein (in-house), 10 μg/mL saponin, 3 μM GDP and 0.20 nM [^35S]GTPγS to binding buffer (100 mM NaCl, 10 mM MgCl2, 20 mM HEPES, pH 7.4) on ice. The prepared membrane solution (190 μl/well) was transferred to 96-shallow well polypropylene plates containing 10 μl of 20× concentrated stock solutions of agonist prepared in DMSO. Plates were incubated for 30 min at a temperature of about 25° C. with shaking. Reactions were terminated by rapid filtration onto 96-well Unifilter GF/B filter plates (Perkin Elmer, Shelton, Conn.) using a 96-well tissue harvester (Packard) and followed by three filtration washes with 200 μl ice-cold binding buffer (10 mM NaH2PO4, 10 mM Na2HPO4, pH 7.4). Filter plates were subsequently dried at 50° C. for 2-3 hours. Fifty μl/well scintillation cocktail (Perkin Elmer, Shelton, Conn.) was added and plates were counted in a Packard Top-Count for 1 min/well.
κ-Opioid Receptor Functional Data: κ GTP EC50 is the concentration of a compound providing 50% of the maximal response for the compound at a κ receptor.
κ GTP Emax (%) is the maximal effect elicited by a compound relative to the effect elicited by U69,593.
(§3) In TABLE 2, activity response of certain Compounds of the Invention to the μ-, δ- and κ-opioid receptors was determined as described above for functional assays using HEK-293 or CHO cells.

[4] = target: T1, δ opioid receptor; assay: δ-opioid receptor [35S]GTPγS functional assay, HEK-293 or CHO cells; format: biochemical; conditions: for Emax: relative to met-enkephalin, HEK-293 or CHO cells
Experimental: as §2, with “δ-Opioid” for “κ-Opioid”, “δ” for “κ”, “(Perkin Elmer, Shelton, Conn.),” for “(in-house),”, “1-2” for “2-3”, “Top-count” for “Top-Count”
δ-Opioid Receptor Functional Data: δ GTP EC50 is the concentration of a compound providing 50% of the maximal response for the compound at a δ receptor.
δ GTP Emax (%) is the maximal effect elicited by a compound relative to the effect elicited by met-enkephalin.
as §3

SMILES	Ki [1] [nM]	Ki [2] [nM]	EC50 [3] [nM]	Emax [3] [%]	EC50 [4] [nM]	Emax [4] [%]
O=C1NC[C@@]2(CC[C@@]3(O)[C@H]4Cc5ccc(O)cc5[C@@]3(CCN4CC3CC3)C2)N1 [Compound 5, (4bR,4′S,8aS,9R)-11-(cyclopropylmethyl)-3,8a-dihydroxy-5,7,8,8a,9,10-hexahydrospiro[9,4b-(epiminoethano)phenanthrene-6,4′-imidazolidin]-2′-one]	3.55 ± 0.77	272 ± 25.3	67.2 ± 8.88	67.33 ± 0.33	37 ± 15	34.3 ± 2.91
O=C1NC(=O)[C@@]2(CC[C@@]3(O)[C@H]4Cc5ccc(O)cc5[C@@]3(CCN4CC3CC3)C2)N1 [Compound 3, (4bR,4′S,8aS,9R)-11-(cyclopropylmethyl)-3,8a-dihydroxy-5,7,8,8a,9,10-hexahydrospiro[9,4b-(epiminoethano)phenanthrene-6,4′-imidazolidine]-2′,5′-dione]	15.9 ± 3.02	177 ± 36.7	54.8 ± 12.6	80.2 ± 3.32	34.8 ± 7.78	42.5 ± 2.84
